Where a name gives a salt, the structure may show the parent alone. Read-outs that look alike come from different tables or passages of the source.
Test system: hyperlipaemic SD male rats
Assay: Hypolipemizing activity, 5 days experimental model, modified Nath diet
Format: in vivo
Settings: rat, oral; for change in vivo at 100 mg/kg/day / change in vivo at 300 mg/kg/day: 120 h; for Hepatic index (percent variation vs hyperlipaemic controls): index = (Liver weight/body weight) × 100
Procedure: The hypolipemizing activity of the compounds of the present invention has been evaluated in the rat using SD male animals (Charles River) of an initial weight of 150 g, housed in controlled environment at a temperature of 21°±1° C., relative humidity 60% and a 12 hours light/dark cycle.
Experimental models have been used in which the animals are rendered hiperlipaemic by "ad libitum" food administration with a modified Nath diet (Atherosclerosis 30, 1978, pag. 45-46) having the following composition: […]
hydrogenated coconut oil
In the first model the animals have been fed with this diet for 5 consecutive days, during which they received the pharmacological treatment once a day by oral route and were sacrificed 2 hours after the last administration.
At the time of the sacrifice the blood was removed, for the lipid determination, as well as the liver the weight of which was the index of a possible hepatomegaly.
By this experimental model the concentration of the serum lipids attained very high values which, in the control group, was four times the normal values for the total cholesterol and the triglycerides.
The determination of the triglycerides, of the total cholesterol and of the cholesterol associated to the HDL has been effected by means of a commercial enzymatic kit. The concentration of the cholesterol associated to VLDL+LDL has been determined by difference between total cholesterol and HDL.
The results obtained in the experimental model of the 5 days duration for some compounds representative of the invention are reported in the following table 1. The data are expressed as percent variation with respect to the hyperlipaemic controls to which carboxymethylcellulose as 0.5% in water at the dose of 10 ml/kg/day by oral route was administered. The same vehicle was used for the suspension of the tested compounds at the doses of 100 and 300 mg/kg/day by oral route.

[1] = 100 mg/kg/day, by difference between total and HDL, read-out: Cholesterol VLDL + LDL (percent variation vs hyperlipaemic controls)
[2] = 100 mg/kg/day, read-out: Cholesterol HDL (percent variation vs hyperlipaemic controls)
[3] = 100 mg/kg/day, read-out: Total Cholesterol (percent variation vs hyperlipaemic controls)
[4] = 100 mg/kg/day, read-out: Triglycerides (percent variation vs hyperlipaemic controls)
[5] = 300 mg/kg/day, by difference between total and HDL, read-out: Cholesterol VLDL + LDL (percent variation vs hyperlipaemic controls)
[6] = 300 mg/kg/day, read-out: Cholesterol HDL (percent variation vs hyperlipaemic controls)
[7] = 300 mg/kg/day, read-out: Total Cholesterol (percent variation vs hyperlipaemic controls)
[8] = 300 mg/kg/day, read-out: Triglycerides (percent variation vs hyperlipaemic controls)

Structure (SMILES)	change in vivo at 100 mg/kg/day [1] [%]	change in vivo at 100 mg/kg/day [2] [%]	change in vivo at 100 mg/kg/day [3] [%]	change in vivo at 100 mg/kg/day [4] [%]	change in vivo at 300 mg/kg/day [5] [%]	change in vivo at 300 mg/kg/day [6] [%]	change in vivo at 300 mg/kg/day [7] [%]	change in vivo at 300 mg/kg/day [8] [%]	Hepatic index (percent variation vs hyperlipaemic controls) (100 mg/kg/day)	Hepatic index (percent variation vs hyperlipaemic controls) (300 mg/kg/day)
CC(C)COC(=O)c1ccc(OCC(CSc2nc3c(N)ncnc3n2[C@@H]2O[C@H](CO)[C@@H](O)[C@H]2O)=NO)cc1 [Example 31]	-6.6	3.2	-0.3	14.7	-25.7	-5.1	-24.7	-0.7	+3,6%	-1,5%
CC(C)COC(=O)c1ccc(OCC(O)CSc2ncccn2)cc1 (stereo not drawn) [Example 5, 2-[3-[(p-isobutyloxycarbonyl)-phenoxy]-2-hydroxy-propylthio]-pirimidine hydrochloride]	24	-17.7	22.3	13.8	-20.7	-8.5	-20.3	-14.9	-4,1%	-5,7%
CC(C)COC(=O)c1ccc(OCCCSc2nc3c(N)ncnc3n2[C@@H]2O[C@H](CO)[C@@H](O)[C@H]2O)cc1 [Example 25]	-10	-1.2	-9.7	-3.3	-4.8	-7.1	-5.2	15.7	-1,1%	-2,8%
CC(C)COC(=O)c1ccc(OCC(O)CSc2nc3cc4ccccc4cc3o2)cc1 (stereo not drawn) [Example 15]	17.6	0.8	16.5	5	-9.8	13.4	-8.2	5.2	-2,6%	+0,6%
CC(C)COC(=O)c1ccc(OCCSc2nc3c(N)ncnc3n2[C@@H]2O[C@H](CO)[C@@H](O)[C@H]2O)cc1 [Example 27]	-14.6	0.1	-13.6	-0.4	-19.3	5.7	-18.4	-10.2	+0,8%	+0,7%
CC(C)COC(=O)c1ccc(OCC(O)CSc2nccn2C)cc1 (stereo not drawn) [Example 4, 1-methyl-2-[3-[(p-isobutyloxycarbonyl)-phenoxy]-2-hydroxy-propylthio]-imidazole hydrochloride]	9.2	-3.4	7.7	-5.9	-4	8.2	-2.6	0.2	+2,2%	+4,3%
CC(C)COC(=O)c1ccc(OCC(O)CSc2nc3cc(Cl)ccc3s2)cc1 (stereo not drawn) [Example 10, 2-[3-[(p-isobutyloxycarbonyl)-phenoxy]-2-hydroxy-propylthio]5-chloro-benzothiazole]	-20.4	5.5	-18.6	-8.5	-26.4	17.3	-23.3	-26.3	-2,2%	-0,6%
CC(C)COC(=O)c1ccc(OCC(=O)CSc2nc3c([nH]2)c(=O)n(C)c(=O)n3C)cc1 [Example 3]	-1.3	11.7	-1.1	-6.5	-10.7	3.5	-10.5	-5.8	+3,2%	-1,5%
CC(C)COC(=O)c1ccc(OCC(CSc2nc3ccccc3o2)OC(=O)c2cccnc2)cc1 (stereo not drawn) [Example 12]	11.5	12.5	11.6	-19	-8.9	8.6	-7.8	-39.4	-3,9%	-10,8%
CC(C)COC(=O)c1ccc(OCC(=O)CSc2nc3ccccc3o2)cc1 [Example 1, 2-[3-[(p-isobutyloxycarbonyl)-phenoxyl]-2-oxo-propylthio]-benzoxazole]	-6.1	2.6	-5.7	-27.6	-6.4	17.9	-5.2	-18.4	-8,5%	-2,5%
CCOc1ccc2nc(SCC(O)COc3ccc(C(=O)OCC(C)C)cc3)sc2c1 (stereo not drawn) [Example 9, 2-[3-[(p-isobutyloxycarbonyl)-phenoxy]-2-hydroxy-propylthio]6-ethoxy-benzothiazole]	0.9	2.4	1	0.9	-7	-0.2	-6.5	2.8	-0,8%	-1,2%
CC(C)COC(=O)c1ccc(OCC(O)CSc2nc3ccccc3[nH]2)cc1 (stereo not drawn) [Example 18]	0.2	3.2	1	-19	9	6.5	9.1	-13.1	+3,8%	+3,9%

— patent US5470858A, “Derivatives of (hetero)aromatic ethers and thioethers having antihyperlipidemic activity, process for their preparation and pharmaceutical compositions containing them” (Pierrel SpA, priority 1991, dated 1995)
